The source of these data is ChEMBL document CHEMBL4196099, “Factor XIa Inhibitors as New Anticoagulants” (J Med Chem, 2018).

The species named for data set [1] is Oryctolagus cuniculus. Description: Antithrombotic activity in rabbit model of electrolytic-mediated carotid arterial thrombosis. It counts as functional.
The species entered for data set [2] is Oryctolagus cuniculus. The experiment in a line: Antithrombotic activity in rabbit model of arteriovenous-shunt thrombosis. It counts as functional.
Data set [3] concerns the target Trypsin (Homo sapiens, UniProt P07477+P07478+P35030). The experiment in a line: Inhibition of trypsin (unknown origin) using Chromozyme-TRY substrate incubated for 3 mins by spectrophotometry. It is filed as protein assay.
For data set [4], the species on record is Oryctolagus cuniculus. Description: Antithrombotic activity in rabbit model of venous thrombosis. It counts as functional.
Data set [5] deals with Tryptase (Homo sapiens, UniProt Q9BZJ3+Q15661+Q9NRR2). Description: Inhibition of human lung tryptase using Z-glypro-arg-AMC incubated for 3 mins by spectrophotometry. It counts as protein assay.
For data set [6], the target named is T1, Coagulation factor XI (Homo sapiens, UniProt P03951). The experiment in a line: Inhibition of human factor 11a incubated for 60 mins by Cheng-Prusoff equation analysis.
T1 sequence (P03951 19-387 limits assumed): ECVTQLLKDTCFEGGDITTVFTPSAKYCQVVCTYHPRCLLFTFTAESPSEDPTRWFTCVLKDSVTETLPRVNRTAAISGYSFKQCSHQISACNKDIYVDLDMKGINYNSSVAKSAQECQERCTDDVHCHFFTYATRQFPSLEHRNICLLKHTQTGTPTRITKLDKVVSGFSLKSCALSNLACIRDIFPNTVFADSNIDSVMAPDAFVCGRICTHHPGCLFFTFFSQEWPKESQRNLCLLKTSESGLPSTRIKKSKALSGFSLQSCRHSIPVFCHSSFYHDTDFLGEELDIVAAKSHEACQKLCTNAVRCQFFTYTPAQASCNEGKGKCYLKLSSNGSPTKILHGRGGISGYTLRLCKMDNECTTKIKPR
T1 sequence (P03951 388-625 limits assumed): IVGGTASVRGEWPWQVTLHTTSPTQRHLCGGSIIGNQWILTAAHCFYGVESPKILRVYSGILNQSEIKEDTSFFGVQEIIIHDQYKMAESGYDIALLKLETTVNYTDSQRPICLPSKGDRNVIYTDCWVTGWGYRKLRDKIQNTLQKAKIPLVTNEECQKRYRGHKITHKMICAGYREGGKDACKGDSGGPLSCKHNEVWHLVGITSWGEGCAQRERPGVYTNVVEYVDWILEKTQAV
Data set [7] deals with T1, Coagulation factor XI. The experiment in a line: Inhibition of human factor 11a assessed as reduction in para-nitroanilide releasee using pyroGlu-Pro-Arg-pNA.HCl substrate by chromogenic assay.
Data set [8] in a line: Terminal half life in healthy human following administration of 2 hrs and 5 day continuous iv infusion. It counts as ADME, organism-based. The conditions noted are these: in vivo, read-out: beta t1/2.

pKd, pKi: −log10 of the molar value.

Turning to `CC(C)(C)NC(=O)N1CCN(C(=O)N2C(=O)[C@H](CCCN=C(N)N)[C@H]2C(=O)O)CC1`, the ED50 in data set [1] was found to be 1.5 mg/kg/h; in data set [2] it was 0.4 mg/kg/h; in data set [4], 0.7 mg/kg/h. The values for the IC50 in data set [3] and in data set [5] were 0.05 µM and 0.005 µM, respectively.

For `COC(=O)Nc1ccc2c(c1)NC(=O)CCCC[C@H](NC(=O)[C@H]1CC[C@H](CN)CC1)c1nc-2c[nH]1`, the pKi in data set [6] was 9.52.

In the case of `CNC(=O)[C@H](Cc1ccccc1)NC(=O)c1ccc2[nH]c(=O)cc(O)c2c1`, the pKd in data set [7] was 2.85.

On to `CN1CCN(c2cccc3c2CCN(C(=O)/C=C/c2c(-n4cnnn4)ccc(Cl)c2F)[C@@H]3C(=O)Nc2ccc(C(=O)O)cc2)C(=O)C1` [BMS-962212], for which the half-life in data set [8] fell in the range of 6 to 9 h.

The ED50 is the dose that gives a 50% effect, or the effect in half of the subjects. What is called IC50 is the concentration needed to halve the response being measured. High values mean a need for much substance, low ones inhibition by little substance. A word on the pKi: it is −log10 of the Ki, conventionally taken in molar units. A lower pKi goes with a large Ki. As usually defined, the pKd is −log10 of the Kd, conventionally taken in molar units.
